Laboratory results from patent publication US10080748B2, “Use of flap inhibitors to reduce neuroinflammation mediated injury in the central nervous system” (Bioscience Pharma Partners, LLC, priority 2014, dated 2018).
Where a name gives a salt, the structure may show the parent alone. Read-outs that look alike come from different tables or passages of the source.

Assays:
[1] = tested on: Primary neurons cultured from newborn rats; test: Apoptosis of primary neurons in vitro
Description: Primary neurons cultured from newborn rats were incubated in the presence of increasing concentrations of LTC4 or LTD4 for 16 hours.

[2] = tested on: leukotriene LTC4 production; test: LTC4 levels in brain after rat fluid percussion injury (RP LC-MS/MS); type: in vivo; settings: neutrophil depletion, 0.5 mg/kg IV four days prior to TBI; 1 hour after FPI
Description: Craniotomy and lateral fluid percussion injury (FPI) were performed using a previously validated and published procedure. Farias S, et al. J. Neurotraum, 26, 1977-1986, 2009; Frey L. C. et al. J. Neurosci. Methods 177, 267-272, 2009. Throughout the specification animals subjected to this protocol are referred to as having a TBI since this treatment protocol is a TBI model. Briefly, rats were anesthetized with 3-5% isoflurane, isosol, VEDCO Inc., St. Joseph, Mo., via nose cone and mounted in a stereotaxic head frame. A 3 millimeter (mm) craniotomy was created and centered at 3 mm caudal to bregma and 3.5 mm left of the sagittal suture, keeping the exposed dura intact. One steel support screw was embedded in the skull on the contralateral side. A Luer-Lock hub with an inside diameter of 3.5 mm was centered over the craniotomy and bonded to the skull with cyanoacrylate adhesive and capped. Dental acrylic, Snap, Parka, Inc., Edgewood, N.J., was poured around the huh and screw. After the acrylic hardened antibiotic ointment was applied around the cap and the animals were returned to their cages. The next day, approximately 15-20 hours later, animals were anesthetized with isoflurane in an induction chamber, immediately connected to the FPI apparatus, and received a 20 millisecond (ms) pulse of pressurized sterile saline at 2.7 atmospheres (atm) of pressure to simulate a moderate severity impact on the intact dural surface through the craniotomy before awakening from anesthesia. […] All animals received a subcutaneous injection of the analgesic, buprenorphine, 0.05 milligram/kilogram (mg/kg) Buprenex, prior to craniotomy, and subsequent injections every 12 hours for two days. Moistened food pellets were provided after injury, and all animals were monitored daily for well-being and weight changes.
Two groups of four rats each were subjected to FPI as described above. Four days prior to the FPI, each animal was briefly anesthetized for less than 5 minutes with 3-3.5% isoflurane and administered either NaCl 0.9%, 2 ml/kg IV (vehicle) or vinblastine sulfate 0.5 mg/kg IV in an identical volume. Neutrophil depletion was verified by complete cell blood counts (CBC) in vinblastine treated animals 4 days after administration. Both groups were euthanized by decapitation and the brain lipids extracted 1 hour after FPI. The amounts of LTC4 formed, measured by RP LC-MS/MS and normalized per milligram of protein, were compared between groups using one-way analysis of variance and the Student-Newman-Keuls test for multiple comparisons.
The indole FLAP inhibitor MK-886 was prepared at a dose of 2.5 milligram/milliliter (mg/ml), dissolved in dimethyl sulfoxide (DMSO) and then diluted with 0.9% saline to 10% DMSO. The rats were briefly anesthetized with 3-3.5% isoflurane and either […] at a dose of 6 mg/kg or vehicle was administered intravenously (IV) by tail vein injection. All animals were allowed to wake before undergoing additional procedures.
Cortical and hippocampal regions from ipsilateral and contralateral hemispheres were collected in 4 ml of 80% methanol, homogenized with a Dounee homogenizer, and internal standards were added to the homogenates. Protein content was measured using bicinchoninic acid assay (BCA) for protein to normalize lipid levels to the amount of tissue. Samples were centrifuged and the supernatant was collected. Samples were diluted to a final methanol concentration of lower than 15% and then the lipids were extracted using a solid phase extraction cartridge, Strata C18-E, 100 mg/1 ml, Phenomenex, Torrence Calif. The eluate, 1 ml of methanol, was dried down and reconstituted in 70 microliters (μl) of High Performance Liquid Chromotography (HPLC) solvent A, which is 8.3 mM acetic acid buffered to pH 5.7 with NH4OH, plus […] of solvent B, which is acetonitrile/methanol, 65/35, v/v. […]

[3] = tested on: mice subjected to CHI (mTBI model); test: GFAP and Iba-1 immunohistochemical staining, mouse closed head injury (CHI) model; type: in vivo; settings: 5 mg/kg IP once daily for 6 days after CHI; 7 dpi
[4] = Brain and plasma levels 30 minutes after intranasal administration; type: in vivo, rat; settings: intranasal 60 micrograms/32 ul lipid carrier, 30 minutes post-dosing
Description: For intranasal delivery and subsequent tissue collection, rats were anesthetized with 3.5% isoflurane and placed in a supine position on top of a heating pad. The quinoline-indole FLAP inhibitor MK-591, 60 micrograms (μg) formulated with a lipid carrier was administered using a P20 pipette. Specifically, 4 μl drops were formed at the pipette tip and lowered to alternating nostrils every two minutes until a total of eight 4 μl drops were administered. At 30 minutes after the start of intranasal delivery, blood was collected from the heart, and rats were transcardially perfused with 60 ml ice-cold 0.9% NaCl followed by 360 ml 4% paraformaldehyde at 15 ml/minute. Brain tissues were dissected into anatomical regions on ice, weighed, snap-frozen in liquid N2, and stored at −70° C. until analysis. The levels of MK-591 in tissues and plasma were measured by tandem mass spectroscopy.
The MK-591 was formulated in a lipid carrier solution as described above. […] The rats were briefly anesthetized with 3.5% isoflurane and intranasal MK-591 (60 micrograms/32 ul lipid carrier) was administered in eight 4 ul aliquots to the nasal mucosa alternating between each nostril. The amount of drug was determined with the goal of reaching 200 nM concentration of drug which corresponds to 100× the Kd value for binding to FLAP. At 30 minutes post-dosing, blood was collected from anesthetized animals using a heparanized needle and plasma was separated from blood by centrifugation. The animals were then perfused with saline, while still under anesthesia, to remove drug in the blood of the cerebrovasculature. After perfusion the animals were euthanized and brain regions were rapidly removed. Both plasma and brain tissue samples were frozen in liquid nitrogen followed by storage at −80° C. Drug levels in the peripheral plasma and parenchymal brain tissues were assessed using a validated tandem mass spectroscopy platform. Values are expressed in ng of MK-591/mg tissue. […] The concentration of MK-591 in the cortex was 200 nM, the target concentration.

[5] = Brain and plasma levels 30 minutes after intraperitoneal administration; type: in vivo, rat; settings: intraperitoneal 10 mg/kg in 20% DMSO/saline; 30 minutes post-dosing
Description: The rats were injected intraperitoneally with MK-591 (10 mg/kg in 20% DMSO/saline solution). At 30 minutes post-dosing, blood was collected from anesthetized animals using a heparanized needle and plasma was separated from blood by centrifugation. The animals were then perfused with saline, while still under anesthesia, to remove drug in the blood of the cerebrovasculature. After perfusion the animals were euthanized and brain hemispheres were rapidly removed. Both plasma and brain tissue samples were frozen in liquid nitrogen followed by storage at −80° C. Drug levels in the peripheral plasma and brain were assessed using a validated tandem RP-LC/MS/MS platform. […] Using the conversion of 1 ml=1 gm. The total volume of blood was 2 ml (or […]). The total weight of the brain hemisphere (minus cerebellum) is […]. Values are expressed in ng of MK-591/mg tissue.

[6] = cited from earlier work
[7] = tested on: human whole blood; test: Human whole blood bioassay of LTB4, 5-HETE and AA production; type: cell-based
Excerpt: The results are for the effects of these two FLAP inhibitors on LTB4 production and 5-HETE production. It is known that indole-acetic acid FLAP inhibitors like MK-886, MK-591 display high plasma protein binding. Thus, the potencies of these FLAP inhibitors for blocking leukotrienes in vivo are about 100 fold higher than the affinity of the inhibitors for FLAP binding. The inventors developed a bioassay that closely predicts the in vivo potency of FLAP inhibitors using human whole blood. Briefly, whole blood is incubated with a calcium ionophore like […] or zymosan in the absence or presence of increasing concentrations of a FLAP inhibitor. After incubation at 37° C. for 30 minutes, the samples are centrifuged and the plasma supernatant is subjected to reverse phase liquid chromatography coupled to tandem mass spectrometry to quantify levels of LTB4, 5-HETE, and AA production. Drug IC50 values are determined by non-linear regression analysis (GraphPad Prism).). […] As FLAP inhibitors are poorly water soluble drugs, the inventors have shown that such hydrophobic drugs can be formulated in a carrier comprising one or more vegetable oils, such as olive oil, and phosphatidylserine that are found on the Generally Accepted as Safe (GRAS) list and that such drugs can then be rapidly delivered and targeted to the brain and upper spinal cord. Hanson L R, et al, Drug Delivery 19(3):149-54, 2012.

[8] = cited from earlier work; remark: listed apart in the source

For `CCCCC/C=C\C\C=C/C=C/C=C/[C@@H](SC[C@H](N)C(=O)NCC(=O)O)[C@@H](O)CCCC(=O)O` [LTD4, leukotriene D4], the neuronal apoptosis [1] was “induce neuronal apoptosis”.
For `CC[C@]1(O)C[C@@H]2CN(CCc3c([nH]c4ccccc34)[C@@](C(=O)OC)(c3cc4c(cc3OC)N(C)[C@H]3[C@@](O)(C(=O)OC)[C@H](OC(C)=O)[C@]5(CC)C=CCN6CC[C@]43[C@@H]65)C2)C1` [vinblastine, vinblastine sulfate], the “leukotriene production in the ipsilateral hemisphere” value [2] was “markedly reduced”.
For `CC(C)(C)Sc1c(CC(C)(C)C(=O)O)n(Cc2ccc(Cl)cc2)c2ccc(OCc3ccc4ccccc4n3)cc12` [MK-591], the “GFAP staining in cerebral cortex, external capsule and dentate gyrus” value [3] was “significantly blocked the increase”, the “Iba-1 staining in cerebral cortex, external capsule and dentate gyrus” value [3] was “significantly blocked the increase” and the “brain localization (rank of regions by level)” value [4] was “highest level of MK-591 was detected in the olfactory bulbs, followed by the hippocampus, and cortex”. The “levels of drug in plasma versus brain” value [4] was “lower than the amount of drug reaching the brain”, the concentration at 30 min ([4]; rat, brain cortex, other: intranasal) was 200 nM and the “distribution between plasma and brain tissue” value [5] was “most of the drug was in the plasma with much lower levels found in brain tissue”. The plasma protein binding [6] was “high”, the “potency compared with MK-886” value [7] was “more potent” and the AA production ([7]; human whole blood, data not shown) was “neither of the FLAP inhibitors effected AA production”. The “t1/2 compared with MK-886” value [8] was “longer”.
For `CCCCC/C=C\C\C=C/C=C/C=C/[C@@H](SC[C@H](NC(=O)CC[C@H](N)C(=O)O)C(=O)NCC(=O)O)[C@@H](O)CCCC(=O)O` [LTC4, leukotriene C4], the neuronal apoptosis ([1]; increasing concentrations, 16 hours, dose-dependent) was “induce neuronal apoptosis”.
